{"source": "paper PMC7352571", "about": "“New Anti-Cancer Strategy to Suppress Colorectal Cancer Growth Through Inhibition of ATG4B and Lysosome Function” (Cancers, 2020)", "key": {"caspase-3": {"molecular_target": "T1, caspase-3 (Homo sapiens, UniProt P42574)", "T1 construct": "endogenous in cells; host or cells: HeLa (staurosporine-treated, whole cell lysate)", "T1 sequence (P42574 29-175 limits assumed)": "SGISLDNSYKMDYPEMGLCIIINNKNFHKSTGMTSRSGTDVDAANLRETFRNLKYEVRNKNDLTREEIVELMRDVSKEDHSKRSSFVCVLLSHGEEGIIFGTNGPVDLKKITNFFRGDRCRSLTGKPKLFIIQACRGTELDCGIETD", "T1 sequence (P42574 176-277 limits assumed)": "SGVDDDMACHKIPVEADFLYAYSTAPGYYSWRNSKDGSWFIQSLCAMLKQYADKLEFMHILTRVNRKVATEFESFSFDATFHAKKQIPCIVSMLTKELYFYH", "test": "caspase-3 activity assay (Ac-DEVE-AFC cleavage in lysate of staurosporine-treated HeLa cells)", "type": "biochemical", "settings": "even at a concentration of 50 µM", "description": ". (B) Predicted binding model of compound XOS00163, XOS00201, and XOS00207 bind to ATG4B (PDB ID: 2CY7) pocket. […] . […] . HeLa cells were treated with 1 µM of staurosporine (SP) for 12 h to induce cell apoptosis. Then, 2 µg of the whole cell lysate were mixed with indicated compounds at 37° for 30 min, Ac-DEVE-AFC (25 µM) were then added to a volume of 50 µL, and the emission of 505 nm for AFC was recorded. […] |"}, "HeLa cells": {"system": "HeLa cells", "test": "CCK-8 cell viability assay, HeLa", "type": "cell-based", "description": "(§1) Cells were seeded and incubated overnight in 96-well plates at a density of 5 × 10^3 cells/well. […] A total of 10 µL CCK-8 were added to each well for additional 1 h and cell viability was measured by CCK-8 assay. Absorbance was measured at 450 nm. The IC50 values were calculated by GraphPad Prism 7 (GraphPad Software Inc., San Diego, CA, USA)."}, "HCT116 cells [1]": {"system": "HCT116 cells", "test": "CCK-8 cell viability assay, HCT116", "type": "cell-based, Human", "description": "as §1"}, "HL60 cells": {"system": "HL60 cells", "test": "CCK-8 cell viability assay, HL60", "type": "cell-based", "settings": "Homo sapiens, HL-60; CCK-8 assay", "description": "as §1"}, "A549 cells": {"system": "A549 cells", "test": "CCK-8 cell viability assay, A549", "type": "cell-based", "settings": "Homo sapiens, CCK-8 assay, 48 h", "description": "as §1"}, "T98G cells": {"system": "T98G cells", "test": "CCK-8 cell viability assay, T98G", "type": "cell-based", "settings": "Homo sapiens, CCK-8 assay, 48 h", "description": "as §1"}, "ATG16L1 KO Hela cells": {"system": "ATG16L1 KO Hela cells", "test": "CCK-8 assay, ATG16L1 KO Hela cells", "type": "cell-based", "settings": "Homo sapiens", "description": "as §1\nFigure S4. The identification of ATG4B knockout HCT116 cells. (A) The genomic DNA of HCT116 cells in the control group transfected with GFP-sgRNA and the experimental group transfected with ATG4B-sgRNA was used as a template for PCR, and the PCR products were used for sequencing. (B) Protein levels of ATG 4B and LC3B in the control and ATG4BKO cells.\nFigure S5. 163N induces cell death through targeting autophagy. (A) Hela cells were treated with […]\nperformed to assess cell proliferation. ( B) Hela cells or ATG16L1 KO Hela cells were treated with […]"}, "L02 cells": {"system": "L02 cells", "test": "CCK-8 cell viability assay, normal cells L02", "type": "cell-based", "settings": "at a higher concentration (40 µM), 48 h", "description": "as §1\n(§2) Figure S2. 163N could inhibit autophagy flux. (A) HeLa cells treated with different concentrations of\n(§3) II/TUBA was calculated using ImageJ software.\n(§4) was examined. The number of GFP-LC3B dots was quantified. Data are presented as mean ± SEM\n(§5) was performed to assess cell viability. […]"}, "MRC-5 cells": {"system": "MRC-5 cells", "test": "CCK-8 cell viability assay, normal cells MRC-5", "type": "cell-based", "settings": "at a higher concentration (40 µM), 48 h", "description": "as §1, §2, §3, §4, §5"}, "GFP-LC3 A549 cells": {"system": "GFP-LC3 A549 cells", "test": "GFP-LC3 dots in A549 cells stably expressing GFP-LC3", "type": "cell-based", "settings": "6 h at different concentrations or 10 µM over time course"}, "LC3-II in HeLa cells": {"system": "LC3-II in HeLa cells", "test": "western blot for LC3 conversion, HeLa", "type": "cell-based", "settings": "1, 5, 10, 20 µM for 6 h; 10 µM time course", "description": "as §2, §3, §4, §5"}, "[2]": {"system": "LC3B and LAMP1 in HeLa cells", "test": "immunostaining, colocalization of LC3B and LAMP1", "type": "cell-based", "settings": "10 µM, 6 h", "description": "Figure 4 163N increases the accumulation of autolysosomes. (A) HEK293A cells expressing green fluorescent protein (GFP)-red fluorescent protein (RFP)-LC3 were treated with 163N (10 µM), rapamycin (Rap) (1 µM) or Baf (0.5 µM) for 6 h, then the colocalization of GFP and RFP puncta was detected. […] The colocalization of LC3B and LAMP1 was measured. […] Red arrows indicate normal autolysosome structures. (D) ATG4BKO HeLa cells expressing GFP-LC3[G120] or full length GFP-LC3 were treated with Rap (1 µM), 163N (10 µM), or CQ (40 µM) for 6 h, then the distribution of GFP-LC3 was examined. And the number of GFP-LC3 dots were quantified.\nImmunostaining assay was performed as described previously. Cells were fixed in 4% paraformaldehyde for 15–20 min followed by permeabilization with 0.1% Triton X-100 for another 15 min. Then, PBS containing 5% bovine serum albumin was used for blocking. Primary antibodies (1:150) was used at 4° for one night and then secondary antibodies (1:500) were applied at room temperature for 1 h. EVOS FL Auto (Life Technologies) was used to get the fluorescence images. At least three optical fields with at least 100 cells were analyzed for quantification."}, "HCT116 cells [3]": {"system": "HCT116 cells", "test": "real-time cellular analysis (RTCA)", "type": "cell-based, Human", "settings": "2 µM, wild type HCT116", "description": "An E-Plate 16 (ACEA Biosciences, Hangzhou, China) was prepared with 50 µL of DMEM medium added to each well to do a background measurement in the xCELLigence instrument (ACEA Biosciences, China). 100 µL of passaged cell suspensions containing 2.5 × 10^3 cells were added to each well and then cells were settled on the base of the well for 30 min at room temperature. The plate was inserted into the RTCA system (housed within the incubator) and cell index (CI) values were assessed every 5 min over the following 72 h. After 24 h of cell seeding, the assay was paused and 2 µM 163N was added to each well. Then, the plate was placed in the station again and the analysis was restarted. After completing a total of 72 h of analysis, the data were analyzed with GraphPad 7.0 software."}, "SQSTM1 in HeLa cells": {"system": "SQSTM1 in HeLa cells", "test": "immunostaining of SQSTM1 dots", "settings": "10 µM, 6 h"}, "ATG4A": {"molecular_target": "ATG4A (Homo sapiens, UniProt Q8WYN0)", "sequence (Q8WYN0 whole entry, species assumed)": "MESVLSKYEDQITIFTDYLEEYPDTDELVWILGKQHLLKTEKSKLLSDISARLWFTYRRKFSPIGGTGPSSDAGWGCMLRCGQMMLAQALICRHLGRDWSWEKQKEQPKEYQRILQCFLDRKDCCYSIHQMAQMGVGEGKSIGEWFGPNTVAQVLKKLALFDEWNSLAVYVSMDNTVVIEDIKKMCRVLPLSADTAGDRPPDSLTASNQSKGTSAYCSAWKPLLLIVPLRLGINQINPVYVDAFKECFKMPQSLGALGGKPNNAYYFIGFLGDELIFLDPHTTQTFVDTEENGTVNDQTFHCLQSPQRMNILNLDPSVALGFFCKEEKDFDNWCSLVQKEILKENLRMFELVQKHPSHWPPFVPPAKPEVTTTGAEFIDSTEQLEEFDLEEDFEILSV", "test": "FRET-based assay for ATG4A activity", "method": "A FRET-based assay for detecting ATG4B activity was carried out as described [45]."}, "LC3-II in HCT116 cells": {"system": "LC3-II in HCT116 cells", "test": "western blot for LC3 conversion, HCT116", "settings": "1, 5, 10, 20 µM for 6 h; 10 µM time course", "method": "The ratio of LC3B-II/TUBA was calculated using ImageJ software. […] The ratio of LC3B-II/TUBA was calculated using ImageJ software. […] Data are presented as mean ± SEM from three individual experiments. ** p < 0.01, *** p <0.001, ns, not significant.\n20–30 µg of whole cell lysates were separated by SDS-PAGE to avoid saturation and transferred to PVDF membranes (Millipore, ISEQ00010, Burlington, MA, USA). After blocking, the membrane was incubated with primary antibodies and secondary antibodies. Specific proteins were detected using enhanced chemiluminescence developing agent (Millipore, WBULS0500). Images were taken using Kodak Image Station 4000 (Carestream Health, Rochester, NY, USA)."}}, "data": [{"molecule": "COc1ccc(Nc2cc(C)nc(Nc3ccc(-c4cc5ccccc5o4)cc3)n2)cc1", "note": "[Compound 163N]", "values": [{"measurement": "inhibition effect on caspase-3 activity", "setting": "caspase-3", "result": "no inhibition effect"}, {"measurement": "cytotoxicity relative to XOS00163, XOS00201 and XOS00207, HeLa", "setting": "HeLa cells; HeLa cells", "result": "about five times higher cytotoxicity"}, {"measurement": "IC50", "setting": "HeLa cells; Homo sapiens, HeLa, CCK-8 assay, 48 h", "result": 7.06, "unit": "µM"}, {"measurement": "cytotoxicity relative to XOS00163, XOS00201 and XOS00207, HCT116", "setting": "HCT116 cells [1]; HCT116 cells", "result": "about five times higher cytotoxicity"}, {"measurement": "IC50", "setting": "HCT116 cells [1]; Homo sapiens, HCT-116, CCK-8 assay, 48 h", "result": 5.76, "unit": "µM"}, {"measurement": "IC50", "setting": "HL60 cells", "result": 12.6, "unit": "µM"}, {"measurement": "IC50", "setting": "A549 cells", "result": 7.68, "unit": "µM"}, {"measurement": "IC50", "setting": "T98G cells", "result": 7.23, "unit": "µM"}, {"measurement": "IC50", "setting": "ATG16L1 KO Hela cells", "result": 12.4, "unit": "µM"}, {"measurement": "cell viability of normal cells L02", "setting": "L02 cells", "result": "reduce the cell viability"}, {"measurement": "cell viability of normal cells MRC-5", "setting": "MRC-5 cells", "result": "reduce the cell viability"}, {"measurement": "GFP-LC3 dots", "setting": "GFP-LC3 A549 cells", "result": "accumulation of GFP-LC3 dots in dose- and time-dependent manners"}, {"measurement": "LC3-II level, HeLa", "setting": "LC3-II in HeLa cells", "result": "dose- and time-dependent accumulation of LC3-II"}, {"measurement": "LC3 puncta and co-localization with LAMP1", "setting": "[2]", "result": "remarkable increase of LC3 puncta, which were well co-localized with LAMP1"}, {"measurement": "cytotoxic effect in RTCA", "setting": "HCT116 cells [3]", "result": "significant cytotoxic effects"}, {"measurement": "degradation of autophagic substrate SQSTM1", "setting": "SQSTM1 in HeLa cells", "result": "significantly attenuated the degradation of the autophagic substrate SQSTM1"}, {"measurement": "IC50", "setting": "ATG4A", "result": 53.7, "unit": "µM"}, {"measurement": "LC3-II level, HCT116", "setting": "LC3-II in HCT116 cells", "result": "dose- and time-dependent accumulation of LC3-II"}]}]}
